Assays:
FR = conditions: cited from earlier work
FRα = target: T1, FRα (Homo sapiens, UniProt P15328); assay: Folate-FITC binding competition assay (flow cytometry), FRα on KB cells; conditions: competition with 10 nM Folate-FITC
T1 construct: Human KB nasopharyngeal epidermoid carcinoma cells (expressing FRα); endogenous in cells; host or cells: KB nasopharyngeal epidermoid carcinoma cells
Experimental: (§1) To assess the binding affinity of the terbium-folate conjugates, a flow cytometry binding competition assay was carried out with folate-FITC and increasing concentrations of terbium-folate conjugates with FRα and FRβ expressing cells. The affinity of FRα and FRβ for the terbium-folate conjugates is expressed relative to folic acid, which is given the value of 1.
(§2) Human KB nasopharyngeal epidermoid carcinoma cells (expressing FRα) and FRβ-transfected Chinese Hamster Ovary cells were cultured in Folate-free RPMI medium (Thermo Fisher Scientific) supplemented with 20% Newborn Calf Serum, 1% antibiotics (penicillin and streptomycin) and 25 mM HEPES, in a humidified 37 °C incubator with 5% CO2 as described by Van der Heijden et al.[4] The culture medium was refreshed every 3 days. Stock solutions (1 mM) of Tb-folate conjugates were made by dissolving in 50 mM NaHCO3 and stored at −20 °C until use. […] Flow cytometry data was analyzed in FlowJo v10.8 Software (BD Life Sciences). […] Data from 6–9 replicative experiments were analyzed. […]
(§3) Considering FRα and FRβ share the same affinity for folic acid and Folate-FITC, relative affinities for Tb-folate compounds were expressed relative to folic acid.[59],[60] The relative affinity was calculated using [drawing 1] […]

FRβ = target: T2, FRβ (Homo sapiens, UniProt P14207); assay: Folate-FITC binding competition assay (flow cytometry), FRβ on CHO/FRβ transfected cells; conditions: competition with 1 nM Folate-FITC
T2 construct: expressed in transfected cells; host or cells: Chinese Hamster Ovary (CHO) cells
T2 sequence (P14207 17-255): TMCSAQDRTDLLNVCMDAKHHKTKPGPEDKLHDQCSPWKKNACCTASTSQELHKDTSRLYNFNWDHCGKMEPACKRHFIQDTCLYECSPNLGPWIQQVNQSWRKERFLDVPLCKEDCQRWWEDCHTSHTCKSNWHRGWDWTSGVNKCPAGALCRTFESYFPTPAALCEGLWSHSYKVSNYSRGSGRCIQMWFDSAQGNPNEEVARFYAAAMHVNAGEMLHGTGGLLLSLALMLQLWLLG
Experimental: as §1, §2, §3

[1] = design: method as in PMID 30296376; conditions: λex = 776 nm, λem = 793 nm; cited from earlier work
[2] = design: method as in PMID 30296376; conditions: λex = 776 nm; cited from earlier work
[3] = UV-vis absorption (molar extinction coefficient); assay type: physicochemical; conditions: H2O, λmax = 281 nm, mixture of regioisomers
Text: The absorption spectrum of folic acid is characterized by two absorption bands in the region of 250–300 and 300–400 nm, which correspond to the π → π* transition for the pterin and the n → π* transition for the p-amino benzoyl acid moieties respectively.[46] […] Differences are observed for TbL,^4 which is red-shifted and broadened due to the overlap with the acetophenone moiety; similar absorbance spectra of acetophenone-folate complexes have been reported by Quici et al.[16]
UV–vis spectra were recorded on a Cary60 UV–vis spectrophotometer fitted with a xenon source lamp or on a Jasco V-770 UV–visible/NIR spectrophotometer.

T1 sequence (P15328 25-257): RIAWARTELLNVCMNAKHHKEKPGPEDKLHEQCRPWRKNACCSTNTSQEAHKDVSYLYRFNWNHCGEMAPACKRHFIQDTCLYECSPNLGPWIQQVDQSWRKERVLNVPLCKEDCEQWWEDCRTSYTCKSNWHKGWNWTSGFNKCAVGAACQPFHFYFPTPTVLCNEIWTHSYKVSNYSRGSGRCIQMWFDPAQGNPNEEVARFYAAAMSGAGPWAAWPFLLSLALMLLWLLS

CN1c2c(nc(N)[nH]c2=O)NCC1CNc1ccc(C(=O)N[C@@H](CCC(=O)O)C(=O)O)cc1 (stereo partly drawn) [5-methyltetrahydrofolate]
FR affinity, fold lower than folic acid (FR): approximately 10 fold

Nc1nc(=O)c2nc(CNc3ccc(C(=O)N[C@@H](CCC(=O)O)C(=O)O)cc3)cnc2[nH]1 [ChEBI_27470, folic acid]
relative binding affinity to FRα (folic acid = 1) (FRα): 1
relative binding affinity to FRβ (folic acid = 1) (FRβ): 1

CC1(C)C(/C=C/C2=C(Oc3ccc(C[C@H](NC(=O)c4ccc(NCc5cnc6nc(N)[nH]c(=O)c6n5)cc4)C(=O)[O-])cc3)C(=C/C=C3\N(CCCCS(=O)(=O)[O-])c4ccc(S(=O)(=O)[O-])cc4C3(C)C)/CCC2)=[N+](CCCCS(=O)(=O)[O-])c2ccc(S(=O)(=O)[O-])cc21.[H+].[H+].[H+].[H+] [OTL38]
Φ (quantum yield) [1]: 15.1%
ε (molar extinction coefficient) [2]: 272 000 M^–1 cm^–1

Folate-PEG6-DOTA [L^1αγ]
ε (molar extinction coefficient) of free ligand [3]: 20013 M^–1 cm^–1

Reference: article PMC11345839, “Synthesis and Characterization of Folic Acid-Conjugated Terbium Complexes as Luminescent Probes for Targeting Folate Receptor-Expressing Cells” (Journal of Medicinal Chemistry, 2024)
